{"source": "patent US20240139123A1", "about": "“COMPOSITIONS AND METHODS FOR IMPROVING BRAIN FUNCTION” (Health Via Modern Nutrition Inc., priority 2021, published 2024)", "origin": "cited, not measured here", "key": {"[1]": {"conditions": "rats, diet supplemented as 30% of calories"}, "[2]": {"conditions": "animal models"}, "NF-κB activation": {"test_system": "NF-κB activation", "conditions": "in vitro"}, "[3]": {"conditions": "animal and in vitro studies"}, "[4]": {"conditions": "Schizophrenia-like rat model"}, "[5]": {"conditions": "patient with Alzheimer's disease dementia, 20-month oral administration"}}, "data": [{"smiles": "C[C@@H](O)CCOC(=O)C[C@@H](C)O", "note": "[(R)-3-hydroxyburyl (R)-3-hydroxybutyrate]", "values": [{"measurement": "cognitive and physical performance", "setting": "[1]", "result": "improved cognitive and physical performance"}]}, {"smiles": "C=C(C)[C@@H]1CCC(C)=C[C@H]1c1c(O)cc(CCCCC)cc1O", "note": "[CBD, cannabidiol]", "values": [{"measurement": "anti-anxiety and antidepressant effects", "setting": "[2]", "result": "exhibited an anti-anxiety and antidepressant effects"}, {"measurement": "NF-κB activation", "setting": "NF-κB activation", "result": "inhibits"}, {"measurement": "reactive oxygen species (ROS) production by mitochondria", "setting": "NF-κB activation", "result": "inhibits"}, {"measurement": "anti-inflammatory properties", "setting": "[3]", "result": "strong anti-inflammatory properties"}, {"measurement": "cognitive impairment and cortical transcriptional changes", "setting": "[4]", "result": "improve cognitive impairment and reverse cortical transcriptional changes"}]}, {"smiles": "C[C@@H](O)CCOC(=O)C[C@@H](C)O", "note": "[ketone monoester]", "values": [{"measurement": "mood, affect, self-care, cognitive and daily activity performance", "setting": "[5]", "result": "improved markedly in mood, affect, self-care, and cognitive and daily activity performance"}]}]}
